{"source": "patent US12173350B2", "about": "“Chemiluminescent probes for imaging/detection of proteases” (RAMOT AT TEL-AVIV UNIVERSITY LTD., priority 2017, dated 2024)", "key": {"[1]": {"target": "T1, cathepsin B (Homo sapiens, UniProt P07858)", "assay": "Chemiluminescence kinetic profile of probes with or without cathepsin B in activity buffer", "assay_type": "biochemical", "settings": "probe 1 μM, activity buffer pH 7.4, 10% DMSO, 2.5 units/mL cathepsin B, room temperature", "protocol": "FIGS. 1A-1C show the chemiluminescence kinetic profiles of probes 1, 2, 3 and 4 [1 μM] in activity buffer (pH 7.4, 10% DMSO) in the presence of 2.5 units/mL cathepsin B at room temperature (1A; the inset focuses on the kinetic profile of probe 1); the total light emitted from each probe (1B); and the maximal signal yielded by each probe (1C).\n(§1) The activity buffer contained: phosphate buffer 0.1M, 55 mM NaCl, 1 mM EDTA, 5 mM glutathione. All spectroscopic measurements were conducted in triplicates. The blank measurements for limit of detection calculation were repeated ten times. Limit of detection (LOD) was calculated as such: LOD=Meanblank+3×SD wherein SD—standard deviation.\nNext, chemiluminescence emission of the probes, as a function of time was measured, with or without the addition of cathepsin B. The kinetic profiles of the chemiluminescence signals and their relative total-photon emissions are shown in FIGS. 1A and 1B, respectively. […] From then on, a pattern of increased chemiluminescent signal is seen, correlating to the addendum change and the improved probe solubility in aqueous media. Evaluating the probes for forthcoming cell imaging required us to also assess the maximal signal yielded by each probe, as it will culminate in higher sensitivity and resolution (FIG. 1C). The maximal signal of the different probes pales in comparison to that of probe 4, making it the leading choice for further investigation. No light emission was observed from the probes in the absence of cathepsin B."}, "[2]": {"target": "T1, cathepsin B", "assay": "HPLC analysis of the enzymatic degradation of the probe by cathepsin B", "assay_type": "biochemical", "settings": "probe 10 μM, activity buffer pH 7.4, 10% DMSO, 2.5 U/mL cathepsin B", "excerpt": "To confirm the connection between the enzymatic degradation and chemiluminescent signal of the probes, HPLC was used to follow the enzymatic degradation of probe 4."}, "[3]": {"test_system": "Raw 264.7 cells", "assay": "Chemiluminescence microscopy imaging of cathepsin B activity in Raw 264.7 cells", "assay_type": "cell-based, murine", "settings": "probe 5 μM, LV200 microscope, 20 min exposure", "protocol": "(§2) Images were obtained following 30 min incubation with cell culture medium containing either probe 3 or probe 4 (5 μM), and were taken using the LV200 Olympus microscope using a 60× objective and 20 min exposure time. Chemiluminescence microscopy image and transmitted light image of […] cells incubated with probe 3 (a and b, respectively); Chemiluminescence microscopy image and transmitted light image of […] cells incubated with probe 4 (c and d, respectively); Chemiluminescence microscopy image and transmitted light image of CT26 cells incubated with probe 3 (e and f, respectively); Chemiluminescence microscopy image and transmitted light image of CT26 cells incubated with probe 4 (g and h, respectively); Chemiluminescence microscopy image and transmitted light image of 3T3 cells incubated with probe 3 (i and j, respectively); Chemiluminescence microscopy image and transmitted light image of 3T3 cells incubated with probe 4 (k and l, respectively).\n(§3) Chemiluminescence images were acquired using Olympus LV200 inverted microscope fitted with an EMCCD camera (Hamamatsu C9100-13). […] For visualization of chemiluminescence emission, images were recorded with 20 minutes exposure times. […]"}, "[4]": {"test_system": "CT26 tumor cells", "assay": "Chemiluminescence microscopy imaging of cathepsin B activity in CT26 tumor cells", "assay_type": "cell-based", "settings": "probe 5 μM, LV200 microscope, 20 min exposure", "protocol": "as §2, §3"}, "[5]": {"test_system": "3T3 normal cells", "assay": "Chemiluminescence microscopy imaging of cathepsin B activity in 3T3 normal cells", "assay_type": "cell-based, mouse", "settings": "3T3 cells, probe 5 μM, LV200 microscope, 20 min exposure", "protocol": "as §2, §3"}, "[6]": {"target": "T1, cathepsin B", "assay": "Sensitivity (limit of detection) of probes to detect cathepsin B, signal/noise vs enzyme concentration", "assay_type": "biochemical", "settings": "for limit of detection (LOD) of cathepsin B: LOD = mean blank + 3×SD", "protocol": "as §1\nThe sensitivity of probe 4 to detect cathepsin B was measured and compared to that of a classic fluorescent probe (Z-Val-Cit-PABA-7HC) based on 7-hydroxy-coumarin To directly view the comparison between the two detection methods, signal/noise ratio using different cathepsin B concentrations was plotted against enzyme concentration using logarithmic scales (FIG. 4)."}}, "note": "“Also recorded” adds a separate entry of the source."}
{"smiles": "COC1(c2cccc(OCc3ccc(NC(=O)C(CCCNC(N)=O)NC(=O)C(NC(=O)OCc4ccccc4)C(C)C)cc3)c2Cl)OOC12C1CC3CC(C1)CC2C3", "note": "(centres unmarked) [Probe 1]", "values": [{"measurement": "chemiluminescence emission (signal) upon addition of cathepsin B", "setting": "[1]", "value": "extremely weak emission"}]}
{"smiles": "COC(=O)/C=C/c1ccc(C2(OC)OOC23C2CC4CC(C2)CC3C4)c(Cl)c1OCc1ccc(NC(=O)C(CCCNC(N)=O)NC(=O)C(NC(=O)CCCCCN2C(=O)CC(SC[C@@H](N)C(=O)NCC(=O)N[C@H](CCCCN)C(=O)N[C@H](CCCNC(=N)N)C(=O)N[C@H](CCCCN)C(=O)O)C2=O)C(C)C)cc1", "note": "(some centres unmarked) [Probe 4]", "values": [{"measurement": "chemiluminescence emission (signal) upon addition of cathepsin B", "setting": "[1]", "value": "distinct increase in the chemiluminescent signal; also recorded: highest light emission"}, {"measurement": "enzymatic degradation followed by HPLC", "setting": "[2]", "value": "rapid enzymatic disassembly"}, {"measurement": "chemiluminescence signal in cell imaging", "setting": "[3]", "value": "imaged via the chemiluminescence signal"}, {"measurement": "chemiluminescence signal in cell imaging", "setting": "[4]", "value": "imaged via the chemiluminescence signal"}, {"measurement": "chemiluminescence signal in cell imaging", "setting": "[5]", "value": "no chemiluminescence signal was observed"}, {"measurement": "limit of detection (LOD) of cathepsin B", "setting": "[6]; chemiluminescence", "value": 76.29, "unit": "μU/mL"}, {"measurement": "superior sensitivity vs. fluorescent probe Z-Val-Cit-PABA-7HC", "setting": "[6]; ratio of LOD values", "value": "more than 16,000 fold"}]}
{"smiles": "COCCOCCOCCOCCOCCOCCOCCOCCOCCOCCOCCOCCOCCOCCOCCOCCOCCOC(=O)NC(C(=O)NC(CCCNC(N)=O)C(=O)Nc1ccc(COc2c(/C=C/C(=O)OC)ccc(C3(OC)OOC34C3CC5CC(C3)CC4C5)c2Cl)cc1)C(C)C", "note": "(centres unmarked) [Probe 3]", "values": [{"measurement": "chemiluminescence emission (signal) upon addition of cathepsin B", "setting": "[1]", "value": "distinct increase in the chemiluminescent signal; also recorded: highest light emission"}, {"measurement": "chemiluminescence signal in cell imaging", "setting": "[3]", "value": "no chemiluminescence signal"}, {"measurement": "chemiluminescence signal in cell imaging", "setting": "[4]", "value": "no chemiluminescence signal"}, {"measurement": "chemiluminescence signal in cell imaging", "setting": "[5]", "value": "no chemiluminescence signal"}]}
{"smiles": "COC(=O)/C=C/c1ccc(C2(OC)OOC23C2CC4CC(C2)CC3C4)c(Cl)c1OCc1ccc(NC(=O)C(CCCNC(N)=O)NC(=O)C(NC(=O)OCc2ccccc2)C(C)C)cc1", "note": "(centres unmarked) [Probe 2]", "values": [{"measurement": "chemiluminescence emission (signal) upon addition of cathepsin B", "setting": "[1]", "value": "distinct increase in the chemiluminescent signal"}]}
{"smiles": "CC(C)C(NC(=O)OCc1ccccc1)C(=O)NC(CCCNC(N)=O)C(=O)Nc1ccc(COc2ccc3ccc(=O)oc3c2)cc1", "note": "(stereo not drawn) [Z-Val-Cit-PABA-7HC, reference compound]", "values": [{"measurement": "limit of detection (LOD) of cathepsin B", "setting": "[6]; fluorescence", "value": 1.25, "unit": "U/mL"}]}
